Laboratory results published in article PMC7910608, “Tuning flavin environment to detect and control light-induced conformational switching in Drosophila cryptochrome” (Communications Biology, 2021).

Experiments:
Format in all cases: binding
dCRY; dCRY(WT)-SORTC-SL [1] = target: T1, dCRY; dCRY(WT)-SORTC-SL (Drosophila melanogaster, UniProt O77059, H378N); assay: cw-ESR, UV-vis and 4P-DEER of bound flavin after blue light; details: pH 8; anionic semiquinone formed in light
T1 construct: gene cry; full length, N-terminal twin-Strep tag, C-terminal sort-tag (LPGTG) ligated to GGGGC-nitroxide (LPGTGGGGC); E. coli CmpX13
T1 sequence (O77059 1-539 H378N): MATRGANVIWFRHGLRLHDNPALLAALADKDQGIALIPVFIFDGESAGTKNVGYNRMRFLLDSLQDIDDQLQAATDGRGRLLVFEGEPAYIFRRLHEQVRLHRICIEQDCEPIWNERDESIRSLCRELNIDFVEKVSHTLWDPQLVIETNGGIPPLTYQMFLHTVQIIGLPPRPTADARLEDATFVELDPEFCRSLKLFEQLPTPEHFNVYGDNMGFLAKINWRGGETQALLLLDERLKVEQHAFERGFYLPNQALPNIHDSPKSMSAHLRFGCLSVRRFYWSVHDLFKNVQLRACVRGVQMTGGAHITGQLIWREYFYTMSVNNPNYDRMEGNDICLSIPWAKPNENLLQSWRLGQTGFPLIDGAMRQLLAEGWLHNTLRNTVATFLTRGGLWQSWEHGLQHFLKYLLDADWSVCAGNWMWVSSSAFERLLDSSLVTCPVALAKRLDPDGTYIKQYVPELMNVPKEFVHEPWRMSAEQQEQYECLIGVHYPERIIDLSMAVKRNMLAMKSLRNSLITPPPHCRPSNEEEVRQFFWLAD

dCRY; dCRY(WT)-SORTC-SL [2] = target: T2, dCRY; dCRY(WT)-SORTC-SL (Drosophila melanogaster, UniProt O77059, H378N/L405E/C416N); assay: as above; details: pH 8; neutral semiquinone formed in light
T2 construct: gene cry; full length, N-terminal twin-Strep tag, C-terminal sort-tag (LPGTG) ligated to GGGGC-nitroxide (LPGTGGGGC); E. coli CmpX13
T2 sequence (O77059 1-539 H378N/L405E/C416N): as the sequence (O77059 1-539 H378N) above, with L405E, C416N counted along it

dCRY; dCRY(WT)-SORTC-SL [3] = target: T3, dCRY; dCRY(WT)-SORTC-SL (Drosophila melanogaster, UniProt O77059, H378R/L405E/C416N); assay: as above; details: pH 8; neutral semiquinone formed in light
T3 construct: gene cry; full length, N-terminal twin-Strep tag, C-terminal sort-tag (LPGTG) ligated to GGGGC-nitroxide (LPGTGGGGC); E. coli CmpX13
T3 sequence (O77059 1-539 H378R/L405E/C416N): as the sequence (O77059 1-539 H378N) above, with N378R, L405E, C416N counted along it

dCRY; dCRY(WT)-SORTC-SL [4] = target: T4, dCRY; dCRY(WT)-SORTC-SL (Drosophila melanogaster, UniProt O77059, L405E/C416N); assay: UV-vis, ENDOR and cw-ESR of bound flavin, blue-light photoreduction; details: pH 8; neutral semiquinone formed in light
T4 construct: gene cry; full length, N-terminal twin-Strep tag, C-terminal sort-tag (LPGTG) ligated to GGGGC-nitroxide (LPGTGGGGC); E. coli CmpX13
T4 sequence (O77059 1-539 L405E/C416N): as the sequence (O77059 1-539 H378N) above, with N378H, L405E, C416N counted along it

dCRY; dCRY(WT)-SORTC-SL [5] = target: T5, dCRY; dCRY(WT)-SORTC-SL (Drosophila melanogaster, UniProt O77059, H378R); assay: cw-ESR, UV-vis and 4P-DEER of bound flavin after blue light; details: pH 8; anionic semiquinone formed in light
T5 construct: gene cry; full length, N-terminal twin-Strep tag, C-terminal sort-tag (LPGTG) ligated to GGGGC-nitroxide (LPGTGGGGC); E. coli CmpX13
T5 sequence (O77059 1-539 H378R): as the sequence (O77059 1-539 H378N) above, with N378R counted along it

dCRY; dCRY(WT)-SORTC-SL [6] = target: T6, dCRY; dCRY(WT)-SORTC-SL (Drosophila melanogaster, UniProt O77059, H378K); assay: as above; details: pH 8; anionic semiquinone formed in light
T6 construct: gene cry; full length, N-terminal twin-Strep tag, C-terminal sort-tag (LPGTG) ligated to GGGGC-nitroxide (LPGTGGGGC); E. coli CmpX13
T6 sequence (O77059 1-539 H378K): as the sequence (O77059 1-539 H378N) above, with N378K counted along it

dCRY; dCRY(WT)-SORTC-SL [7] = target: T7, dCRY; dCRY(WT)-SORTC-SL (Drosophila melanogaster, UniProt O77059); assay: X-ray crystal structure, […] A; also UV-vis and ENDOR; details: dark state; crystals at pH 9; magnesium
T7 construct: gene cry; full length, N-terminal twin-Strep tag, C-terminal sort-tag (LPGTG) ligated to GGGGC-nitroxide (LPGTGGGGC); E. coli CmpX13
T7 sequence (O77059 1-539): as the sequence (O77059 1-539 H378N) above, with N378H counted along it

dCRY; dCRY(WT)-SORTC-SL [8] = target: T8, dCRY; dCRY(WT)-SORTC-SL (Drosophila melanogaster, UniProt O77059, H378K/L405E/C416N); assay: cw-ESR, UV-vis and 4P-DEER of bound flavin after blue light; details: pH 8; neutral semiquinone formed in light
T8 construct: gene cry; full length, N-terminal twin-Strep tag, C-terminal sort-tag (LPGTG) ligated to GGGGC-nitroxide (LPGTGGGGC); E. coli CmpX13
T8 sequence (O77059 1-539 H378K/L405E/C416N): as the sequence (O77059 1-539 H378N) above, with N378K, L405E, C416N counted along it

Cc1cc2nc3c(=O)[nH]c(=O)nc-3n(C[C@H](O)[C@H](O)[C@H](O)COP(=O)(O)OP(=O)(O)OC[C@H]3O[C@@H](n4cnc5c(N)ncnc54)[C@H](O)[C@@H]3O)c2cc1C [FAD]
cw-ESR, UV-vis and 4P-DEER of bound flavin after blue light (dCRY; dCRY(WT)-SORTC-SL [1]): H378 substitutions (H378K/N/R) led to ASQ formation
cw-ESR, UV-vis and 4P-DEER of bound flavin after blue light (dCRY; dCRY(WT)-SORTC-SL [2]): triple substitutions (H378K/N/R, L405E, and C416N) led to NSQ formation
cw-ESR, UV-vis and 4P-DEER of bound flavin after blue light (dCRY; dCRY(WT)-SORTC-SL [3]): triple substitutions (H378K/N/R, L405E, and C416N) led to NSQ formation
UV-vis, ENDOR and cw-ESR of bound flavin, blue-light photoreduction (dCRY; dCRY(WT)-SORTC-SL [4]): Both WT dCRY and L405E/C416N show characteristic absorption bands of oxidized FAD in the dark
cw-ESR, UV-vis and 4P-DEER of bound flavin after blue light (dCRY; dCRY(WT)-SORTC-SL [5]): H378 substitutions (H378K/N/R) led to ASQ formation
cw-ESR, UV-vis and 4P-DEER of bound flavin after blue light (dCRY; dCRY(WT)-SORTC-SL [6]): H378 substitutions (H378K/N/R) led to ASQ formation
X-ray crystal structure, 2.58 A; also UV-vis and ENDOR (dCRY; dCRY(WT)-SORTC-SL [7]): The crystal structure of dCRY-WT-SORTC-SL in the dark state shows that the active site FAD
cw-ESR, UV-vis and 4P-DEER of bound flavin after blue light (dCRY; dCRY(WT)-SORTC-SL [8]): triple substitutions (H378K/N/R, L405E, and C416N) led to NSQ formation
